Laboratory results: ChEMBL document CHEMBL1201862, “PubChem BioAssay data set” (2004)
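Grown in 96-well plates, cells were treated for 48 hours with each compound at five concentrations. Insufficient inhibition: endpoint recorded as highest concentration tested. The concentration for 50% growth inhibition is given as GI50.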 Calls of active or inactive are those of the source. Rule as the data show it: active = GI50 up to about 1.1 µM and inactive = higher. Square brackets hold non-standard residues; d marks the D form. Peptide text beside a SMILES is read from it. * marks the point of attachment. Bn2Val = CC(C)[C@@H](C(=O)*)N(Cc1ccccc1)Cc1ccccc1; NH(3,4-diMeO-benzyl) = COc1ccc(CN*)cc1OC; NMeV = CN[C@H](C(=O)O)C(C)C; dNMeA = CN[C@H](C)C(=O)O

Columns and labels:
Assay in all cases: NCI-60 cell line screen, 48 h
[1] = system: MDA-MB-435
[2] = system: K562
[3] = system: NCI-H460
[4] = system: A549
[5] = system: SK-OV-3
[6] = system: LOX IMVI
[7] = system: OVCAR-8
[8] = system: OVCAR-4
[9] = system: OVCAR-3
[10] = system: HL-60
[11] = system: A498
[12] = system: HCT-116
[13] = system: IGROV-1
[14] = system: U-251
[15] = system: M14
[16] = system: SF-295
[17] = system: HOP-92
[18] = system: OVCAR-5
[19] = system: SNB-75
[20] = system: SN12C

| Structure (SMILES) | GI50 [1] | GI50 [2] | GI50 [3] | GI50 [4] | GI50 [5] | GI50 [6] | GI50 [7] | GI50 [8] | GI50 [9] | GI50 [10] | GI50 [11] | GI50 [12] | GI50 [13] | GI50 [14] | GI50 [15] | GI50 [16] | GI50 [17] | GI50 [18] | GI50 [19] | GI50 [20] |
| --- | --- | --- | --- | --- | --- | --- | --- | --- | --- | --- | --- | --- | --- | --- | --- | --- | --- | --- | --- | --- |
| O=C(CN(c1ccc(S(=O)(=O)O)cc1)c1ccc(S(=O)(=O)O)cc1)Nn1cnc2ccc(S(=O)(=O)N(c3ccc(S(=O)(=O)O)cc3)c3ccc(S(=O)(=O)O)cc3)cc2c1=O | > 100 µM (inactive) | > 100 µM (inactive) | > 100 µM (inactive) | > 100 µM (inactive) | > 100 µM (inactive) | > 100 µM (inactive) | > 100 µM (inactive) | > 100 µM (inactive) | > 100 µM (inactive) | > 100 µM (inactive) | > 100 µM (inactive) | > 100 µM (inactive) | 61.2 µM (inactive) | > 100 µM (inactive) | > 100 µM (inactive) | > 100 µM (inactive) | > 100 µM (inactive) | > 100 µM (inactive) | > 100 µM (inactive) | > 100 µM (inactive) |
| COc1ccc(CNC(=O)[C@@H](C)N(C)C(=O)[C@@H]2CCCN2C(=O)[C@H](C(C)C)N(C)C(=O)[C@@H](NC(=O)[C@H](C(C)C)N(Cc2ccccc2)Cc2ccccc2)C(C)C)cc1OC (Bn2Val-V[NMeV]P[dNMeA]-{NH(3,4-diMeO-benzyl)}) | 8.63 µM (inactive) | 10.8 µM (inactive) | 9.73 µM (inactive) | 5.85 µM (inactive) | 12.8 µM (inactive) | 7.76 µM (inactive) | 14.1 µM (inactive) | 12.6 µM (inactive) | 5.9 µM (inactive) | 1.8 µM (inactive) | 11.5 µM (inactive) | 6.76 µM (inactive) | 5.14 µM (inactive) | 7.6 µM (inactive) | 6.92 µM (inactive) | 6.28 µM (inactive) | 7.4 µM (inactive) | 8.2 µM (inactive) | 6.43 µM (inactive) | 8.13 µM (inactive) |
| COc1cc(Nc2nc3ccccc3nc2C(C)C)cc(OC)c1OC | > 100 µM (inactive) | > 100 µM (inactive) | > 100 µM (inactive) | > 100 µM (inactive) | > 100 µM (inactive) | > 100 µM (inactive) | 73.3 µM (inactive) | > 100 µM (inactive) | > 100 µM (inactive) | > 100 µM (inactive) | > 100 µM (inactive) | > 100 µM (inactive) | > 100 µM (inactive) | > 100 µM (inactive) | > 100 µM (inactive) | 82.8 µM (inactive) | 34 µM (inactive) | > 100 µM (inactive) | > 100 µM (inactive) | > 100 µM (inactive) |
| COC(=O)C(/C(=N/NC(=O)c1ccncc1)C(=O)Nc1ccccc1OC)c1nc2ccc(Cl)cc2nc1O (stereo not given) | 44.3 µM (inactive) | 75.9 µM (inactive) | > 100 µM (inactive) | > 100 µM (inactive) | > 100 µM (inactive) | > 100 µM (inactive) | > 100 µM (inactive) | 55 µM (inactive) | > 100 µM (inactive) | > 100 µM (inactive) | > 100 µM (inactive) | 83.4 µM (inactive) | 11 µM (inactive) | > 100 µM (inactive) | > 100 µM (inactive) | > 100 µM (inactive) | > 100 µM (inactive) | > 100 µM (inactive) | > 100 µM (inactive) | > 100 µM (inactive) |
| CC1(C)COC2=C(C1)C(=O)c1ccccc1C2=O | 0.195 µM (active) | 0.102 µM (active) | 1.91 µM (inactive) | 2.26 µM (inactive) | 1.88 µM (inactive) | 1.88 µM (inactive) | 0.493 µM (active) | 1.53 µM (inactive) | 0.75 µM (active) | 0.583 µM (active) | 2.1 µM (inactive) | 0.449 µM (active) | 1.65 µM (inactive) | 1.43 µM (inactive) | 1.61 µM (inactive) | 1.63 µM (inactive) | 2.3 µM (inactive) | 1.69 µM (inactive) | 1.63 µM (inactive) | 1.36 µM (inactive) |
| CC1=C/C(=C(/c2ccc(O)c(C)c2)c2ccccc2C(=O)O)C=CC1=O | 17.6 µM (inactive) | 21.3 µM (inactive) | 31.5 µM (inactive) | 19.5 µM (inactive) | 19.2 µM (inactive) | 20.7 µM (inactive) | 20 µM (inactive) | 18.1 µM (inactive) | 18 µM (inactive) | 20.8 µM (inactive) | 18.7 µM (inactive) | 18.2 µM (inactive) | 18.1 µM (inactive) | 18.2 µM (inactive) | 18.3 µM (inactive) | 21.8 µM (inactive) | 20.3 µM (inactive) | 21.2 µM (inactive) | 18.5 µM (inactive) | 19.6 µM (inactive) |
| CN(C)CC(O)CNC(=O)Nc1ccccc1 (stereo not given) | > 100 µM (inactive) | > 100 µM (inactive) | > 100 µM (inactive) | > 100 µM (inactive) | > 100 µM (inactive) | > 100 µM (inactive) | > 100 µM (inactive) | > 100 µM (inactive) | > 100 µM (inactive) | > 100 µM (inactive) | > 100 µM (inactive) | > 100 µM (inactive) | > 100 µM (inactive) | > 100 µM (inactive) | > 100 µM (inactive) | > 100 µM (inactive) | > 100 µM (inactive) | > 100 µM (inactive) | > 100 µM (inactive) | > 100 µM (inactive) |
| CN1Cc2c(ccc3c2OCO3)[C@@H]2[C@H](O)Cc3cc4c(cc3[C@@H]21)OCO4 | 0.52 µM (active) | 2.61 µM (inactive) | 3.01 µM (inactive) | 4.15 µM (inactive) | 3.16 µM (inactive) | 4.51 µM (inactive) | 3.62 µM (inactive) | > 86.7 µM (inactive) | 2.2 µM (inactive) | 1.46 µM (inactive) | 2.17 µM (inactive) | 3.4 µM (inactive) | 3.87 µM (inactive) | 3.19 µM (inactive) | 2.2 µM (inactive) | 2.14 µM (inactive) | 46.5 µM (inactive) | 12.1 µM (inactive) | 2.62 µM (inactive) | 5.06 µM (inactive) |
| Cn1c(CC(O)c2nc3ccccc3n2C)nc2ccccc21 (stereo not given) | > 18.5 µM (inactive) | > 9.51 µM (inactive) | > 27.4 µM (inactive) | > 56.6 µM (inactive) | > 30.4 µM (inactive) | > 28.8 µM (inactive) | > 27 µM (inactive) | > 23.3 µM (inactive) | > 13.1 µM (inactive) | 0.413 µM (active) | > 32.9 µM (inactive) | > 23.7 µM (inactive) | > 17.4 µM (inactive) | > 28 µM (inactive) | > 29.2 µM (inactive) | > 100 µM (inactive) | > 24.4 µM (inactive) | > 59.7 µM (inactive) | > 100 µM (inactive) | > 36 µM (inactive) |
| Cc1ccc(-c2cn3c(nc4ccccc43)c(-c3ccccc3)n2)cc1 | > 100 µM (inactive) | > 100 µM (inactive) | > 94.4 µM (inactive) | > 100 µM (inactive) | 18.3 µM (inactive) | > 100 µM (inactive) | 27.9 µM (inactive) | > 80.7 µM (inactive) | > 100 µM (inactive) | > 100 µM (inactive) | 30.9 µM (inactive) | 75 µM (inactive) | 37.9 µM (inactive) | 18.8 µM (inactive) | > 100 µM (inactive) | 19.8 µM (inactive) | 20.7 µM (inactive) | > 100 µM (inactive) | 8.45 µM (inactive) | > 100 µM (inactive) |
